Test results reported in article PMC6303142 (Saudi Journal of Biological Sciences, 2016).
≈ marks a conversion by molar mass, not a printed value. Like-named read-outs stand apart in the source and are kept apart here.

Key:
Artemia salina = assay: General
Staphylococcus aureus = assay: Broth microdilution MIC/MBC against planktonic cells; assay type: cell-based
soybean LOX-1 = target: T1, soybean LOX-1 (Glycine max, UniProt P08170); assay: Lipoxygenase; assay type: biochemical
T1 sequence (P08170 1-839): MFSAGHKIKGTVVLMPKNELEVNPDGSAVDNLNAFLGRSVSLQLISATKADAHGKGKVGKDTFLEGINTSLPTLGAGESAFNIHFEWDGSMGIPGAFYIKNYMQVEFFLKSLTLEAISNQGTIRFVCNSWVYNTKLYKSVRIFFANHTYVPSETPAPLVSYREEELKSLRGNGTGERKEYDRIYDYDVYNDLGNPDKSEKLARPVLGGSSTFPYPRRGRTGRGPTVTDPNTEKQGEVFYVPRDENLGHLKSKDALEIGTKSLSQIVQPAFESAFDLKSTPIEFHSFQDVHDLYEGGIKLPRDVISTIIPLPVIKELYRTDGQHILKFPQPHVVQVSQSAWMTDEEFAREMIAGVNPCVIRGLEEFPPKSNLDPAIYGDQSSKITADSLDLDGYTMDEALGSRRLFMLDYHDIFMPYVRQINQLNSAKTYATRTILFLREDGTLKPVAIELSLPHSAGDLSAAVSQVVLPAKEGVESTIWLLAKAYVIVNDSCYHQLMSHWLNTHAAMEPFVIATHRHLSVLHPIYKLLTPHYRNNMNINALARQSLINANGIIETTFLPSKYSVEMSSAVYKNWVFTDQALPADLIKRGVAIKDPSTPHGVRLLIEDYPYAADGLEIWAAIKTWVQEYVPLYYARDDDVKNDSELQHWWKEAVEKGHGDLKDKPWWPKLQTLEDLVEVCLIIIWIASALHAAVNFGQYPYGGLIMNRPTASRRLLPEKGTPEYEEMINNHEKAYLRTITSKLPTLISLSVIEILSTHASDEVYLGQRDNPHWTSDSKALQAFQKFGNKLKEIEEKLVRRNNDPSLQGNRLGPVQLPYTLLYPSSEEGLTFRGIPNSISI

COX-2 = target: T2, COX-2 (Homo sapiens, UniProt P35354); assay: Cyclooxygenase; assay type: biochemical
T2 sequence (P35354 18-604): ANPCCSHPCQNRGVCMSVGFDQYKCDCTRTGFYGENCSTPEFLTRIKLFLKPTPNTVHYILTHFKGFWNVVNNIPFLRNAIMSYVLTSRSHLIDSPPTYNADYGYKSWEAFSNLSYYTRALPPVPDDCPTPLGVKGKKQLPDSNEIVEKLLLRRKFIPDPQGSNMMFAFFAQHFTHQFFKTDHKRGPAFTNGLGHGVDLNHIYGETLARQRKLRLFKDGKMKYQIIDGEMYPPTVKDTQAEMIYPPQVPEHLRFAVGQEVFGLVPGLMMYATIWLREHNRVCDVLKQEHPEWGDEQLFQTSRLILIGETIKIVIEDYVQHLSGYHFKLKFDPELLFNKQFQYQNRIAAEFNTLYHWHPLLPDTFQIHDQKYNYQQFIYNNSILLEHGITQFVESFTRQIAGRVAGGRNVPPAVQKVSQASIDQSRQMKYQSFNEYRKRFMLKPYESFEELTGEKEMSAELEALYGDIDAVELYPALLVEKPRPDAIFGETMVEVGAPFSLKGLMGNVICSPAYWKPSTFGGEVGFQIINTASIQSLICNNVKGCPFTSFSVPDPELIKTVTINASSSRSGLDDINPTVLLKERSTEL

sPLA2 = assay type: biochemical
[1] = test system: S. aureus (ATCC 25923 and F7 strains) biofilm; assay: Biofilm formation; assay type: cell-based, Staphylococcus aureus; conditions: 1/2 MIC, 24 h, F7 and ATCC 25923 strains, crystal violet
S. aureus F7 strain = assay: Electron microscopy; assay type: cell-based, Staphylococcus aureus; conditions: DHC at MIC, 24 h, SEM and TEM
[2] = test system: human hepatoma HepG2 cells; conditions: ref Zampini et al. (2008); cited from earlier work
[3] = ATCC29213, S. aureus ATCC 29213, control strain
[4] = S. aureus clinical isolate 5 (F5), Met^r Oxa^r
[5] = S. aureus clinical isolate 7 (F7), Met^r Oxa^r Gen^r
[6] = S. aureus clinical isolate 8 (F8), Met^r Oxa^r
[7] = S. aureus clinical isolate 23 (F23), Met^r Oxa^r
[8] = S. aureus clinical isolate 31 (F31), Met^r Oxa^r Van^s

[Na+].[Na+].[O]=[Cr](=[O])([O-])[O][Cr](=[O])(=[O])[O-] [sodium dichromate]
LC50 (concentration that kills 50% of the A. salina larvae) (Artemia salina): 30 µg/mL

COc1c(O)ccc(C(=O)/C=C/c2ccccc2)c1O [DHMC, 2′,4′-dihydroxy-3′-methoxychalcone]
MBC (Staphylococcus aureus; [3]): 200 µg/mL (≈ 740 µM) | MIC (Staphylococcus aureus; [3]): 200 µg/mL (≈ 740 µM) | MBC (Staphylococcus aureus; [4]): 200 µg/mL (≈ 740 µM) | MIC (Staphylococcus aureus; [4]): 200 µg/mL (≈ 740 µM) | MBC (Staphylococcus aureus; [5]): 200 µg/mL (≈ 740 µM) | MIC (Staphylococcus aureus; [5]): 200 µg/mL (≈ 740 µM) | MBC (Staphylococcus aureus; [6]): 200 µg/mL (≈ 740 µM) | MIC (Staphylococcus aureus; [6]): 200 µg/mL (≈ 740 µM) | MBC (Staphylococcus aureus; [7]): 200 µg/mL (≈ 740 µM) | MIC (Staphylococcus aureus; [7]): 100 µg/mL (≈ 370 µM) | MBC (Staphylococcus aureus; [8]): 200 µg/mL (≈ 740 µM) | MIC (Staphylococcus aureus; [8]): 200 µg/mL (≈ 740 µM) | IC50 (soybean LOX-1): 235 µM | activity against COX-2 (COX-2; tested concentrations 10–150 μg/mL): not active | Inhibition (%) sPLA2 (sPLA2; 10 μg/mL): 38.18 ± 1.80%

O=c1c(O)c(-c2ccccc2)oc2cc(O)ccc12 [DHF, 3,7-dihydroxyflavone]
MBC (Staphylococcus aureus; [3]): > 500 µg/mL | MIC (Staphylococcus aureus; [3]): 400 µg/mL (≈ 1570 µM) | MBC (Staphylococcus aureus; [4]): > 500 µg/mL | MIC (Staphylococcus aureus; [4]): 200 µg/mL (≈ 787 µM) | MBC (Staphylococcus aureus; [5]): > 500 µg/mL | MIC (Staphylococcus aureus; [5]): 200 µg/mL (≈ 787 µM) | MBC (Staphylococcus aureus; [6]): 400 µg/mL (≈ 1570 µM) | MIC (Staphylococcus aureus; [6]): 25 µg/mL (≈ 98.3 µM) | MBC (Staphylococcus aureus; [7]): > 500 µg/mL | MIC (Staphylococcus aureus; [7]): 200 µg/mL (≈ 787 µM) | MBC (Staphylococcus aureus; [8]): > 500 µg/mL | MIC (Staphylococcus aureus; [8]): 200 µg/mL (≈ 787 µM) | IC50 (soybean LOX-1): 227 µM | IC50 (COX-2): 100 µM | Inhibition (%) sPLA2 (sPLA2; 10 μg/mL): 2.70 ± 0.20% | activity on sPLA2 (sPLA2; at the concentration assayed (10 μg/mL)): not active

O=C1CC(c2ccccc2)Oc2cc(O)ccc21 (stereo not drawn) [HF, 7-hydroxyflavanone]
MBC (Staphylococcus aureus; [3]): > 500 µg/mL | MBC (Staphylococcus aureus; [4]): > 500 µg/mL | MBC (Staphylococcus aureus; [5]): 200 µg/mL (≈ 832 µM) | MBC (Staphylococcus aureus; [6]): > 500 µg/mL | MBC (Staphylococcus aureus; [7]): > 500 µg/mL | MBC (Staphylococcus aureus; [8]): > 500 µg/mL

O=C(/C=C/c1ccccc1)c1ccc(O)cc1O [DHC, 2′,4′-dihydroxychalcone]
MBC (Staphylococcus aureus; [3]): 50 µg/mL (≈ 208 µM) | MIC (Staphylococcus aureus; [3]): 50 µg/mL (≈ 208 µM) | MBC (Staphylococcus aureus; [4]): 100 µg/mL (≈ 416 µM) | MIC (Staphylococcus aureus; [4]): 25 µg/mL (≈ 104 µM) | MBC (Staphylococcus aureus; [5]): 100 µg/mL (≈ 416 µM) | MIC (Staphylococcus aureus; [5]): 25 µg/mL (≈ 104 µM) | MBC (Staphylococcus aureus; [6]): 100 µg/mL (≈ 416 µM) | MIC (Staphylococcus aureus; [6]): 25 µg/mL (≈ 104 µM) | MBC (Staphylococcus aureus; [7]): 200 µg/mL (≈ 832 µM) | MIC (Staphylococcus aureus; [7]): 25 µg/mL (≈ 104 µM) | MBC (Staphylococcus aureus; [8]): 200 µg/mL (≈ 832 µM) | MIC (Staphylococcus aureus; [8]): 100 µg/mL (≈ 416 µM) | biofilm formation inhibition [1]: most active pure compound | IC50 (soybean LOX-1): 414 µM | morphological changes in the cell appearance (S. aureus F7 strain): visible cellular aggregation, blebs on the cellular surface and cytoplasmic coagulation | IC50 (COX-2): 7.16 µM | Inhibition (%) sPLA2 (sPLA2; 10 μg/mL): 60.50 ± 2.90% | genotoxicity [2]: did not find genotoxicity

COc1ccc2cc([C@H](C)C(=O)O)ccc2c1 [Naproxen, reference compound]
Inhibition (%) sPLA2 (sPLA2): 6.00 ± 0.40%
